Key:
basil 'Genovese' [1] = assay: Visual injury of basil after insecticide, fungicide, PGRs, safeners (Example 4)
Outline: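 Plants received postemergence sprays of one insecticide, one fungicide, two PGRs or two safeners in the greenhouse. About 4 weeks later they were harvested, and replicates were pooled for laboratory content analysis. Injury was rated visually on a 0–100% scale.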

basil 'Genovese' [2] = assay: Content analysis of basil: protein, minerals (Example 4, Tables 10-11); assay type: in vivo; settings: 28 DA-A
Outline: (§1)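 Plants were harvested about 4 weeks post-treatment and pooled across replicates to analyse protein, amino acids, fiber, fatty acids and minerals (Na, Ca, P, Mg, K, Fe, Mn, Zn, Cu). Treatments were postemergence insecticide, fungicide, PGRs and safeners. Visual injury scored 0–100% (phytotoxicity, chlorosis, stunting).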

basil ‘Genovese’ = assay: Yield, fresh weight of basil after insecticide, fungicide, PGRs and safeners (Example 4, Table 10); assay type: in vivo; settings: DA-A, check 31.8
Outline: as §1

kale 'Red Russian' = assay: Visual injury of kale after insecticide, fungicide, PGRs, safeners (Example 4)
Procedure: (§2) Greenhouse and laboratory studies were conducted to ascertain the tolerance and nutritional quality differences following postemergence applications of the insecticide chlorpyrifos, the fungicide chlorothalonil, the PGRs mepiquat-chloride and paclobutrazol, and the safeners napthalic anhydride and isoxadifen-ethyl on kale ‘Red Russian’ and basil ‘Genovese’. Visual injury was rated based on general phytotoxicity, chlorosis, and visual stunting and each measurement was based on a percent scale from 0 to 100 where 0 equals no visual response and 100 equals complete plant death. Kale and basil were both harvested approximately 4 weeks after treatments and plants were pooled over replicates for content analysis of crude protein, crude amino acid content, acid detergent fiber, neutral detergent fiber, total fatty acids, and/or key mineral content (including Na, Ca, P, Mg, K, Fe, Mn, Zn, and Cu). In addition, the amounts of key individual amino acids (aspartic acid, threonine, glutamic acid, proline, glycine, cysteine, valine, leucine, isoleucine, methionine, and lysine) and composite classifications of fatty acid (saturated fatty acids, monounsaturated fatty acids, polyunsaturated fatty acids) were also analyzed from these sub-samples for kale (Tables 10-14).

kale ‘Red Russian’ = assay: Yield, fresh weight of kale after insecticide, fungicide and PGRs (Example 4, Table 12); assay type: in vivo; settings: 28 DA-A, Untreated Check 106.9
Procedure: as §2

[3] = 14 DA-A, rates g ai/ha: chlropyrifos 3370, chlorothalonil 7900, paclobutrazol 9.7, mepiquat-chloride 37, Isoxadifen 16, Napthalic anhydride 527, + NIS 0.25 % v/v
[4] = 28 DA-A, rates g ai/ha: chlropyrifos 1120, chlorothalonil 2630, paclobutrazol 3.23, mepiquat-chloride 12.3, Isoxadifen 8, Napthalic anhydride 264, + NIS 0.25 % v/v
[5] = 28 DA-A, rates g ai/ha: chlropyrifos 3370, chlorothalonil 7900, paclobutrazol 9.7, mepiquat-chloride 37, Isoxadifen 16, Napthalic anhydride 527, + NIS 0.25 % v/v
[6] = rates g ai/ha: chlroprifos 3370, chlorothalonil 7900, paclobutrazol 9.7, mepiquat-chloride 37, Isoxadifen 16, Napthalic anhydride 527, + NIS 0.25 % v/v
[7] = rates g ai/ha: chlropyrifos 1120, chlorothalonil 2630, paclobutrazol 3.23, mepiquat-chloride 12.3, Isoxadifen 8, Napthalic anhydride 264, + NIS 0.25 % v/v
[8] = 7 DA-A, rates g ai/ha: chlropyrifos 1120, chlorothalonil 2630, paclobutrazol 3.23, mepiquat-chloride 12.3, + NIS 0.25 % v/v
[9] = 7 DA-A, rates g ai/ha: chlropyrifos 3370, chlorothalonil 7900, paclobutrazol 9.7, mepiquat-chloride 37, + NIS 0.25 % v/v
[10] = 14 DA-A, rates g ai/ha: chlropyrifos 1120, chlorothalonil 2630, paclobutrazol 3.23, mepiquat-chloride 12.3, + NIS 0.25 % v/v
[11] = 14 DA-A, rates g ai/ha: chlropyrifos 3370, chlorothalonil 7900, paclobutrazol 9.7, mepiquat-chloride 37, + NIS 0.25 % v/v
[12] = 28 DA-A, rates g ai/ha: chlropyrifos 1120, chlorothalonil 2630, paclobutrazol 3.23, mepiquat-chloride 12.3, + NIS 0.25 % v/v
[13] = 28 DA-A, rates g ai/ha: chlropyrifos 3370, chlorothalonil 7900, paclobutrazol 9.7, mepiquat-chloride 37, + NIS 0.25 % v/v

N#Cc1c(Cl)c(Cl)c(Cl)c(C#N)c1Cl [chlorothalonil]
Phytotoxicity Stunting (basil 'Genovese' [1]; 14 DA-A, rates g ai/ha: chlropyrifos 1120, chlorothalonil 2630, paclobutrazol 3.23, mepiquat-chloride 12.3, Isoxadifen 8, Napthalic anhydride 264, + NIS 0.25 % v/v): 8% | Phytotoxicity Chlorosis (basil 'Genovese' [1]; [3]): 5% | Phytotoxicity General (basil 'Genovese' [1]; [3]): 2% | Phytotoxicity Stunting (basil 'Genovese' [1]; [3]): 7% | Phytotoxicity Chlorosis (basil 'Genovese' [1]; [4]): 5% | Phytotoxicity General (basil 'Genovese' [1]; [4]): 10% | Phytotoxicity Stunting (basil 'Genovese' [1]; [4]): 7% | Phytotoxicity Chlorosis (basil 'Genovese' [1]; [5]): 10% | Phytotoxicity General (basil 'Genovese' [1]; [5]): 3% | Phytotoxicity Stunting (basil 'Genovese' [1]; [5]): 10% | ADF, Percent Increase Over the Untreated Check (on a % dry matter basis) (basil 'Genovese' [2]; [6]): 1 % check | Calcium, Percent Increase Over the Untreated Check (on a % dry matter basis) (basil 'Genovese' [2]; [6]): −15 % check | Copper, Percent Increase Over the Untreated Check (on a % dry matter basis) (basil 'Genovese' [2]; [6]): −17 % check | Iron, Percent Increase Over the Untreated Check (on a % dry matter basis) (basil 'Genovese' [2]; [6]): 25 % check | Magnesium, Percent Increase Over the Untreated Check (on a % dry matter basis) (basil 'Genovese' [2]; [6]): −6 % check | Manganese, Percent Increase Over the Untreated Check (on a % dry matter basis) (basil 'Genovese' [2]; [6]): −8 % check | NDF, Percent Increase Over the Untreated Check (on a % dry matter basis) (basil 'Genovese' [2]; [6]): 12 % check | Phosphorous, Percent Increase Over the Untreated Check (on a % dry matter basis) (basil 'Genovese' [2]; [6]): 0 % check | Potassium, Percent Increase Over the Untreated Check (on a % dry matter basis) (basil 'Genovese' [2]; [6]): 7 % check | Protein, Percent Increase Over the Untreated Check (on a % dry matter basis) (basil 'Genovese' [2]; [6]): 3 % check | Sodium, Percent Increase Over the Untreated Check (on a % dry matter basis) (basil 'Genovese' [2]; [6]): 50 % check | Soluble protein, Percent Increase Over the Untreated Check (on a % dry matter basis) (basil 'Genovese' [2]; [6]): 42 % check | Zinc, Percent Increase Over the Untreated Check (on a % dry matter basis) (basil 'Genovese' [2]; [6]): −6 % check | ADF, Percent Increase Over the Untreated Check (on a % dry matter basis) (basil 'Genovese' [2]; [7]): 1 % check | Calcium, Percent Increase Over the Untreated Check (on a % dry matter basis) (basil 'Genovese' [2]; [7]): 0 % check | Copper, Percent Increase Over the Untreated Check (on a % dry matter basis) (basil 'Genovese' [2]; [7]): −17 % check | Iron, Percent Increase Over the Untreated Check (on a % dry matter basis) (basil 'Genovese' [2]; [7]): 37 % check | Magnesium, Percent Increase Over the Untreated Check (on a % dry matter basis) (basil 'Genovese' [2]; [7]): 3 % check | Manganese, Percent Increase Over the Untreated Check (on a % dry matter basis) (basil 'Genovese' [2]; [7]): 43 % check | NDF, Percent Increase Over the Untreated Check (on a % dry matter basis) (basil 'Genovese' [2]; [7]): 6 % check | Phosphorous, Percent Increase Over the Untreated Check (on a % dry matter basis) (basil 'Genovese' [2]; [7]): 9 % check | Potassium, Percent Increase Over the Untreated Check (on a % dry matter basis) (basil 'Genovese' [2]; [7]): 4 % check | Protein, Percent Increase Over the Untreated Check (on a % dry matter basis) (basil 'Genovese' [2]; [7]): 3 % check | Sodium, Percent Increase Over the Untreated Check (on a % dry matter basis) (basil 'Genovese' [2]; [7]): 8 % check | Soluble protein, Percent Increase Over the Untreated Check (on a % dry matter basis) (basil 'Genovese' [2]; [7]): 223 % check | Zinc, Percent Increase Over the Untreated Check (on a % dry matter basis) (basil 'Genovese' [2]; [7]): 38 % check | Yield Fresh weight (basil ‘Genovese’; [7]): 27.5 grams | Yield Fresh weight (basil ‘Genovese’; rates g ai/ha: chlropyrifos 3370, chlorothalonil 7900, paclobutrazol 9.7, mepiquat-chloride 37, Isoxadifen 16, Napthalic anhydride 527, + NIS 0.25 % v/v): 25.9 grams | Phytotoxicity Chlorosis (kale 'Red Russian'; [8]): 0% | Phytotoxicity General (kale 'Red Russian'; [8]): 15% | Phytotoxicity Stunting (kale 'Red Russian'; [8]): 0% | Phytotoxicity Chlorosis (kale 'Red Russian'; [9]): 0% | Phytotoxicity General (kale 'Red Russian'; [9]): 9% | Phytotoxicity Stunting (kale 'Red Russian'; [9]): 1% | Phytotoxicity Chlorosis (kale 'Red Russian'; [10]): 10% | Phytotoxicity General (kale 'Red Russian'; [10]): 0% | Phytotoxicity Stunting (kale 'Red Russian'; [10]): 5% | Phytotoxicity Chlorosis (kale 'Red Russian'; [11]): 6% | Phytotoxicity General (kale 'Red Russian'; [11]): 1% | Phytotoxicity Stunting (kale 'Red Russian'; [11]): 5% | Phytotoxicity Chlorosis (kale 'Red Russian'; [12]): 3% | Phytotoxicity General (kale 'Red Russian'; [12]): 5% | Phytotoxicity Stunting (kale 'Red Russian'; [12]): 6% | Phytotoxicity Chlorosis (kale 'Red Russian'; [13]): 0% | Phytotoxicity General (kale 'Red Russian'; [13]): 3% | Phytotoxicity Stunting (kale 'Red Russian'; [13]): 8% | Yield Fresh weight (kale ‘Red Russian’; rates g ai/ha: chlropyrifos 1120, chlorothalonil 2630, paclobutrazol 3.23, mepiquat-chloride 12.3, + NIS 0.25 % v/v): 102.5 grams | Yield Fresh weight (kale ‘Red Russian’; rates g ai/ha: chlropyrifos 3370, chlorothalonil 7900, paclobutrazol 9.7, mepiquat-chloride 37, + NIS 0.25 % v/v): 107.5 grams
